# Test results published in a melting point compilation (Tetko et al.; mined from patent text by program, amines drawn as free bases though some values may be those of a salt).
row,SMILES,melting point
1,CCC(=CC(CNC(=O)c1c(C)noc1C)=NO)C(C)[N+](=O)[O-] (centres undefined),100 to 103 °C
2,CCCCc1nc2cccc(C(=O)O)c2n1Cc1ccc(-c2ccccc2-c2n[nH]c(=O)o2)cc1,204 to 205 °C
3,O=C(Nc1ccccc1N1CCc2ccccc21)c1ccncc1,120 to 121 °C
4,COC(=O)C1=C(C#N)NC(C)=C(C(=O)OCC(C)C)C1c1ccccc1C#N (centres undefined),196 to 198 °C
5,CC(C)(C)OC(=O)c1ncn2c1[C@@H]1CCN1C(=O)c1c(Br)cccc1-2,240 to 241 °C
6,C=CC(=O)Nc1cccc2cccnc12,76.5 to 78.5 °C
7,COc1cccc([C@H]2O[C@H](CC(=O)NCCCOc3ccc(CC(=O)O)cc3)C(=O)N(CC(C)(C)CO)c3ccc(Cl)cc32)c1OC,125 to 128 °C
8,N#CSc1ccc(-c2nc3ccc(N)c(SC#N)c3nc2-c2ccco2)o1,185 to 187 °C
9,N#Cc1ccc(Oc2cc3c(cc2Cl)C=C(C(=O)O)C(C(F)(F)F)O3)cc1 (centres undefined),212 to 216 °C
10,CCCCc1ccc(-c2cnc(-c3ccc(C#N)cc3)nc2)cc1,94.7 °C
11,COC(=O)COc1ccc(Cl)cc1CC1CNC(=O)CN(S(=O)(=O)c2ccc(Cl)cc2)C1=O (centres undefined),138 to 140 °C
12,Cc1ccc2c3c(ccc2n1)OC[C@H](CN1CCCN(c2ccc4cc(C#N)ccc4n2)CC1)O3,80 to 85 °C
13,Clc1ccc2nc(CN3CCN(c4ccccc4Cl)CC3)cn2c1,123 to 124 °C
14,Fc1cncc(F)c1C1=NC(c2ccc(I)cc2)CO1 (centres undefined),84 to 86 °C
15,Oc1cccc(C(F)(F)F)n1,117 to 118 °C
16,Cc1oc2ccccc2c1C(=O)c1ccc(Cl)c(N)c1,103 °C
17,N#CCCCCNc1ccc(O)cc1,88 to 90 °C
18,NCC(=O)Nc1ccc(S(=O)(=O)c2cccc(Cl)c2)cc1,195 to 196 °C
19,CC(=O)c1cccc(-c2cc3c(=O)n(NS(C)(=O)=O)c(=O)[nH]c3cc2C(F)(F)F)c1,220 to 222 °C
20,Cc1c(C)n(Cc2ccccc2)c(=O)n(CCCCl)c1=O,72 to 74 °C
21,O=[N+]([O-])c1cccc(Oc2cccc(-c3nnc(Nc4ccc(Cl)c(Cl)c4)s3)c2)c1,210 to 212 °C
22,CN1CCCCC1CCCc1ccccc1NC(=O)C=Cc1ccccc1 (centres undefined),130 to 132 °C
23,NC(=O)c1c(N)oc2ccc(Cl)cc2c1=O,320 °C

row,SMILES,melting point
1,N=C(N)NC(=O)Cn1c(Cc2ccco2)ccc1-c1ccccc1,80 to 82 °C
2,OC(c1cc(-c2ccc(Cl)cc2)c(-c2ccc(Cl)cc2)[nH]1)(C(F)(F)F)C(F)(F)F,144 to 145 °C
3,CCCCc1nc2cccc(C(=O)OC)c2n1Cc1ccc2nc(-c3ccccc3-c3nnn[nH]3)n(C)c(=O)c2c1,240 to 242 °C
4,COc1ccc(-c2cc(=O)n(Cc3ccc(F)cc3F)nc2-c2ccc(OC)cc2)cc1,150 to 151 °C
5,Cc1ccc(N(c2ccc(C)cc2)c2ccc(C=Cc3ccccc3O)cc2)cc1,136 to 138 °C
6,NC(=O)c1cnn2c(-c3ccccc3)ccnc12,236 to 238 °C
7,CC(=O)N1CCc2ccc(C(=O)CCCC3CCN(Cc4ccccc4Cl)CC3)cc2CC1,99 to 100 °C
8,COc1ccc(-c2ccc(-c3nc(N)nc(N)n3)cc2)cc1,> 260 °C
9,CCCCC[C@H]1CC[C@H](c2ccc(CC#N)cc2)CC1,53 °C
10,O=c1n(CCCN2CCC(n3c(=O)[nH]c4ccccc43)CC2)nc2n1-c1ccccc1OC2,176 to 178 °C
11,NC(c1ccnc(F)c1)C(O)c1cccc(C(F)(F)F)c1 (centres undefined),128 to 129 °C
12,FC(F)(F)C1(c2cc(Cl)cc(Cl)c2)CC(c2ccc(-c3cn[nH]c3)c3ccccc23)=NO1 (centres undefined),117 to 120 °C
13,FC(F)(F)c1cccc(C(CC2=NCCN2)c2ccc3ccccc3n2)c1 (centres undefined),92 to 93 °C
14,COc1ccc(CCNC(=O)c2ccc3n2Cc2ccccc2N(C(=O)c2ccc(-c4ccccc4C)c(C)c2)C3)cc1,170 to 172 °C
15,NCC(O)c1ccc([N+](=O)[O-])cc1 (centres undefined),138 to 139 °C
16,O=C(Nc1ccc(N2CCOCC2=O)cc1)[C@H]1C[C@@H](O)CN1C(=O)Cc1ccc(Cl)cc1,141 °C
17,CCc1nc2c(C)cc(C)nc2n1Cc1ccc(C(c2ccccc2)C(CC)C(=O)O)cc1 (centres undefined),227 to 229 °C
18,COc1cc2ncnc(Sc3cccc(O)c3)c2cc1OC,221 to 230 °C
19,CCOC(=O)N1C[C@H](O)C[C@H]1CCOc1ccc(Br)cc1CCc1ccccc1,63 to 66 °C
20,Cn1c(C(F)(F)F)cc(=O)n(-c2ccc3snc(C(C)(C)C(=O)O)c3c2)c1=O,155 to 156 °C
21,CCOC(=O)/C=C/c1cc(OCc2ccc(OCc3nc(-c4ccco4)oc3C)c(OC)c2)nn1-c1ccccc1,127 to 128 °C
22,NS(=O)(=O)c1ccc(NC(=O)CNc2ccccc2)cc1Cl,192 to 194 °C
23,CCCCC[C@H]1CC[C@H](c2ccc(F)c(F)c2)CC1,-9.5 °C

row,SMILES,melting point
1,CN(C)CCN1Cc2cccc3cccc(c23)S1(=O)=O,97 to 98 °C
2,CCCCCN1C(=O)C2(COc3cc(-c4ccncc4)ccc32)c2ccccc21 (centres undefined),107 to 110 °C
3,CC1(C)C(=O)C(C)(C)c2cc(CCN3CCN(c4nsc5ccccc45)CC3)ccc21,122 to 126 °C
4,O=C(CCNC(=O)[C@H](Cc1ccccc1)OP(=O)(O)CCCCc1ccccc1)OCc1ccccc1,64 to 70 °C
5,N=C(N)NCCc1nccs1,130 to 135 °C
6,COc1cc(CNc2cc(Cl)c(N=CN(C)C)c(Cl)c2)cc(OC)c1,124 to 125 °C
7,O=Cc1sccc1-c1noc2ccccc12,173 to 174 °C
8,CC(=O)Nc1ccc2cccc(Oc3cc(N4CCN([C@H](C)c5ccc(F)cc5)CC4)ncn3)c2n1,134 °C
9,O=C(O)c1nn(-c2ccccc2)c2c1C(N1CCOCC1)c1ccccc1-2 (centres undefined),244 to 245 °C
10,CNc1cc2cnnn2c(C)n1,162 to 164 °C
11,CN1C(=O)CN(C=O)C(c2ccccc2)c2cc(Cl)ccc21 (centres undefined),167 to 169 °C
12,Cc1nc(-n2ccc(OCc3ccccc3)cc2=O)sc1C(=O)NCc1ccc(F)c(F)c1,225 to 227 °C
13,O=[N+]([O-])c1cccc(-c2ccc3[nH]c(=S)n(Cc4ccccc4)c3c2)c1,244 to 245 °C
14,C=CCOc1ccc(C(=O)C=Cc2ccc(OC)c(OC)c2)cc1,74.5 to 75 °C
15,CCCOc1c2nc(C(=O)OC)cc(O)c2cc2c(O)cc(C(=O)OC)nc12,245 to 247 °C
16,COc1cc(OC)nc(Oc2ccc3[nH]c(C)cc3c2C(=O)OCc2ccccc2)n1,135 to 139 °C
17,CN(C(=O)C1(CCCCCCCCCCCCC2(C(=O)O)CC2)CC1)S(C)(=O)=O,62.9 to 63.7 °C
18,CS(=O)(=O)OCc1nc2ccc(F)cc2s1,68 to 72 °C
19,CC(=NNc1ccc([N+](=O)[O-])cc1)N1CCOCC1,176 °C
20,COc1cc(C2=C(c3cn(C)c4ccccc34)C(=O)NC2=O)cc(OC)c1OC,187 °C
21,OC(c1ccc(Br)cc1)(c1ccc(Br)cc1)c1ncc[nH]1,192 to 194 °C
22,CC(C)c1cccc(C(C)C)c1NC(=O)C(Cc1ccccc1)NC(=O)NCc1ccccc1 (centres undefined),240 to 241 °C
23,O=C1C2=C(CCCC2)C(Sc2ccccc2)N1c1ccc(Cl)cc1F (centres undefined),86 to 87 °C
